Assay results taken from publication PMC6017654, “Ionic Liquid-Promoted Synthesis of Novel Chromone-Pyrimidine Coupled Derivatives, Antimicrobial Analysis, Enzyme Assay, Docking Study and Toxicity Study” (Molecules : A Journal of Synthetic Chemistry and Natural …, 2018).
Values after ≈ are worked out from the molar mass of the structure shown.

How the values were obtained:
[1] = test system: Cryptococcus neoformans; experiment: In vitro antifungal activity (MIC100, CLSI/NCCLS); assay type: cell-based; details: C. neo., average of three readings, read-out: MIC 100
Experimental: (§1) The newly synthesized derivatives 4(a–f) and 6(a–f) were screened for their in vitro antifungal activity against different yeast and filamentous fungal pathogens. Minimum inhibitory concentration (MIC100) values for in vitro antifungal activity were determined by the methods recommended by National Committee for Clinical Laboratory Standards (NCCLS). Miconazole was used as standard drug. Dimethyl sulfoxide (DMSO) was used as solvent control.
(§2) In vitro antifungal activity was determined as per CLSI (formerly, NCCLS) guidelines. […] The medium yeast nitrogen base was dissolved in phosphate buffer pH 7 and it was autoclaved at 110 °C for 10 min. With each set a growth control without the antifungal agent and solvent control DMSO were included. The fungal strains were freshly sub cultured on to Sabouraud dextrose agar (SDA) and incubated at 25 °C for 72 h. The fungal cells were suspended in sterile distilled water and diluted to get 10^5 cells/mL. Further, ten microlitres of the standardized suspension was inoculated onto the control plates and the media incorporated with the antifungal agents. The inoculated plates were incubated at 25 °C for 48 h. The readings were taken at the end of 48 h and 72 h. The MIC was the lowest concentration of drug preventing growth of macroscopically visible colonies on drug containing plates when there was visible growth on the drug free control plates.

[2] = test system: Aspergillus fumigates; experiment: In vitro antifungal activity (MIC100, CLSI/NCCLS); assay type: cell-based; details: A. fum., average of three readings, read-out: MIC 100
Experimental: as §1, §2

[3] = test system: Fusarium oxysporum; experiment: In vitro antifungal activity (MIC100, CLSI/NCCLS); assay type: cell-based; details: F. oxy., average of three readings, read-out: MIC 100
Experimental: as §1, §2

[4] = test system: Candida glabrata; experiment: In vitro antifungal activity (MIC100, CLSI/NCCLS); assay type: cell-based; details: Nakaseomyces glabratus; C. glab.; average of three readings; read-out: MIC 100
Experimental: as §1, §2

[5] = test system: A. flavus; experiment: In vitro antifungal activity (MIC100, CLSI/NCCLS); assay type: cell-based; details: Aspergillus flavus; A. fla.; average of three readings; read-out: MIC 100
Experimental: as §1, §2

[6] = test system: Candida albicans; experiment: In vitro antifungal activity (MIC100, CLSI/NCCLS); assay type: cell-based; details: C. alb., average of three readings, read-out: MIC 100
Experimental: as §1, §2

[7] = test system: Aspergillus niger; experiment: In vitro antifungal activity (MIC100, CLSI/NCCLS); assay type: cell-based; details: A. nig., average of three readings, read-out: MIC 100
Experimental: as §1, §2

[8] = In vitro cytotoxicity, Sulforhodamine B (SRB) assay; assay type: cell-based, human; details: human, range 80 to 0.55 μg/mL
Excerpt: (§3) Toxicity scrutiny of synthesized compounds at the early phase of research paves the way to clinical trials and reduces the failure of potential therapeutics at later stages of clinical trials. To scrutinize the safety and selectivity of antimicrobial activity of the synthesized compounds, the compounds 6c and 6f were appraised for their toxicity against HeLa (a human cervical cancer cell line) and PC-3 (human prostate cancer cell line) by the Sulforhodamine B (SRB) assay using adriamycin as a standard drug.
(§4) The images were captured using an Eclipse Ti-S Inverted Research Microscope (Nikon, Tokyo, Japan). Image processing software used was NIS-Elements.

[9] = test system: HeLa (human cervical cancer cell line); experiment: as above; assay type: cell-based; details: up to 80 µg/mL
Excerpt: as §3, §4

[10] = test system: ergosterol biosynthesis in Candida albicans (NCIM-3471); experiment: Ergosterol extraction and quantitation assay (UV sterol profile); assay type: cell-based; details: C. albicans NCIM3471
Experimental: Changes in this absorption pattern are therefore indicative of interference in the synthetic pathway of ergosterol.
A single Candida albicans (NCIM-3471) colony from an overnight Sabouraud dextrose agar plate culture was used to inoculate 50 mL of Sabouraud dextrose broth for control and for various concentrations of the molecules. The cultures were incubated for 16 hours and harvested by centrifugation at 2700 rpm (856× g) for five min. The net weight of the cell pellet was determined. Three mL of 25% alcoholic potassium hydroxide solution was added to each pellet and vortex mixed for one min. Cell suspensions were transferred to sterile borosilicate glass screw-cap tubes and were incubated in an 85 °C water bath for one hour. Following incubation, the tubes were allowed to cool. Sterols were then extracted by addition of a mixture of 1 mL of sterile distilled water and 3 mL of n-heptane followed by vigorous vortex mixing for 3 min. The heptane layer was transferred to a clean borosilicate glass screw-cap tube and stored at −20 °C. Prior to analysis, 0.6 mL aliquot of sterol extract was diluted five fold in 100% ethanol and scanned spectrophotometrically between 240 nm and 300 nm with a spectrophotometer (UV-Visible Spectrophotometer 2100, Thermo Fischer Scientific, Waltham, MA, USA). The presence of ergosterol and the late sterol intermediate 24(28)-dehydroergosterol (DHE) in the extracted sample results in a characteristic four-peaked curve. The absence of detectable ergosterol in extracts was indicated by a flat line.
Sterols were extracted from cells and spectral profiles between 240 and 300 nm were determined.

[11] = molecular target: DdlB from E.coli (Escherichia coli, UniProt P07862); experiment: D-Alanine-D-alanine ligase (DdlB) enzyme inhibition, malachite green method; assay type: biochemical; details: 37 °C, 30 min incubation, 5% DMSO
Experimental: The key enzyme involved in the peptidoglycan biosynthesis is D-alanine-D-alanine ligase (Ddl), making it an important target for drug discovery. Inhibition of DdlB as an essential enzyme in either Gram-positive or Gram-negative organisms leads to the loss of cell shape and integrity followed by bacterial death. The synthesized derivatives 4(a–f) and 6(a–f) were tested for their inhibitory activity on DdlB from E.coli. The results are presented as IC50 values.
The D-Ala-adding activity of DdlB ligase was monitored by the detection of orthophosphate generated during the reaction based on the colorimetric malachite green method described by Walsh et al.. […] All the compounds were soluble in the assay mixture containing 5% DMSO. After 30 min of incubation, 100 µL Biomol reagent was added. After 5 min, absorbance was read at 650 nm. Residual activity was calculated with respect to a similar assay without inhibitor. To exclude possible non-specific (promiscuous) inhibitors, representative compounds 4(a–f) and 6(a–f) were also tested in the presence of Tween (0.003%), Triton X-114 (0.005%), and SDS (420 µM), as described by McGovern et al.. No significant differences were found when compared to measurements without detergents.

COc1ccc2occ(C3NC(=S)NC(C)=C3C(=O)NN)c(=O)c2c1 (stereo not shown) [Compound 6f, 4-(6-Methoxy-4-oxo-4H-chromen-3-yl)-6-methyl-2-thioxo-1,2,3,4-tetrahydropyrimidine-5-carbohydrazide]
MIC [1]: 15 µg/mL (≈ 41.6 µM) | MIC [2]: 33 µg/mL (≈ 91.6 µM) | MIC [3]: 28 µg/mL (≈ 77.7 µM) | MIC [4]: 25 µg/mL (≈ 69.4 µM) | MIC [5]: 15 µg/mL (≈ 41.6 µM) | MIC [6]: 24 µg/mL (≈ 66.6 µM) | MIC [7]: 16 µg/mL (≈ 44.4 µM) | GI50 ([8]; HeLa cells, SRB assay): > 80 µg/mL | GI50 ([8]; PC-3 cells): > 80 µg/mL | cell inhibition [9]: cell inhibition did not occur | ergosterol peak in UV sterol profile at the MIC value ([10]; 6f 24 µg/mL, miconazole 25 µg/mL, 281.5 nm): almost a flat peak | ergosterol peak at 281.5 nm with increasing concentration ([10]; MIC/16 to MIC (1.5 to 24 µg/mL)): intensity of the ergosterol peak at 281.5 nm decreases | IC50 [11]: > 400 µM
